Results taken from US9433588B2, “Delivery of submicrometer and nanometer aerosols to the lungs using hygroscopic excipients or dual stream nasal delivery” (Virginia Commonwealth Univeristy, priority 2009, dated 2016).
Where two headings read alike, the source gives them in different places. Marks after values point to notes of the source that are not given here.

How the values were obtained:
[1] = Hygroscopic properties of drugs and excipients (saturation limits, i coefficients, hygroscopic parameter); type: physicochemical; conditions: for Saturated mass fraction (mfsat): mass fraction that can be dissolved in liquid water at 25° C.; for Saturated mole fraction (χsat): mole fraction that can be dissolved in liquid water at 25° C.; for Predicted van't Hoff factor (i): measured in this study, best fit of Eq. (15) to water activity data
Experimental: It is noted that Eq. (15) has a form similar to Raoult's law and is valid for materials that may (i>1) or may not (i=1) dissociate upon dissolution. Specifically, Raoult's law provides a linear expression to describe activity coefficients at low solute concentrations, as presented by Finlay (2001). […] Furthermore, values of the i coefficients in this study are determined based on best fits to experimental data over a range of concentrations. Therefore, the application of Eq. (15) can be viewed as a physically based expression for fitting the experimental data. Finally, high accuracy is required at dilute concentrations, which have the largest impact on the final size achieved by the hygroscopic aerosol.
Experimental measurements were made in this study to determine the water activity coefficients of AS, CA, and PG. Activity coefficients for NaCl and MN were determined from the studies of Cinkotai (1971) and Ninni (2000), respectively. […] In order to represent the hygroscopic effect of molecular dissociation with a single coefficient, curve fits to the experimental data were based on Eq. (15) for a single component solution. The optimal value of i providing the best fit to the experimental data was calculated using a minimization routine. […] This limit was used to ensure accuracy of the i-values for dilute droplets, which is needed to ensure accurate estimates of final droplet size.
[formula] where m and M represent the mass (kg) and molar mass (kg/kmol) of the solute (s) and water (w). […] Based on Eq. (15), is directly impacts the activity coefficient and ρs influences the mass term in the mole fraction calculation (Eq. 17). […] This effect of initial drug or excipient loading can be taken into account as a function of the initial solute volume fraction (vfs). The resulting growth coefficient (GC1) for a single component droplet is then

[2] = cited from earlier work; for Predicted van't Hoff factor (i): Eq. (15) fit based on Ninni et al. (2000) measurements (MN) or Cinkotai (1971) correlations (NaCl)
[3] = Generation of submicrometer aerosol with small particle aerosol generator (SPAG) and drying gas; type: physicochemical; conditions: SPAG nebulized and dried; 560 nm: 0.1% solution, 7.5 and 3 L/min; 900 nm: 0.5% solution, 7 and 3 L/min
Experimental: With LFT, a heated air source is not present for aerosol size reduction, as with HFT. However, medical gases used with LFT (oxygen and helium-oxygen) are typically dry. A study was conducted to evaluate if dry medical-grade gas could be used to produce a submicrometer aerosol from a commercially available nebulizer. A small particle aerosol generator (SPAG) was employed, which functions as a jet nebulizer with an additional relatively large and inefficient drying chamber. […] Specifically, albuterol sulfate solutions were nebulized and dried using a series of nebulizer airflow conditions to produce aerosols with initial mean MMADs (and standard deviations) of 150 (5.5) nm, 560 (11.4) nm, and 900 (32.7) nm (FIG. 11). The 560 nm aerosol was generated using a 0.1% albuterol sulfate in water solution with a nebulizer gas flow rate of 7.5 L/min and a drying gas flow rate of 3 L/min. […]
Nano-sized aqueous-based drug aerosols were generated using a small particle aerosol generator (SPAG-6000, ICN Pharmaceuticals, Costa Mesa, Calif.), and were delivered through a nasal model geometry airway in the presence and absence of ECG conditions. Albuterol sulfate solutions were nebulized using a series of nebulizer airflow conditions to produce aerosols with initial mean (SD) measured size of 900 (32.7) nm. […]

[4] = Hygroscopic growth tube, CAG nanoparticle aerosols sized by cascade impactor; type: physicochemical; conditions: Table 2
Experimental: Budesonide nanoparticle aerosols were generated using the Capillary Aerosol Generator (CAG). This technology represents a generic means of producing engineered pharmaceutical nanosized particles suitable for inhalation. The CAG utilizes controlled heating of a liquid formulation passing through a capillary tube to produce nanosized dry particles exiting the capillary nozzle.
Hygroscopic growth of these nanoparticle aerosols was evaluated by passing the aerosol through a growth tube. Briefly, following nanoparticle generation the aerosols were drawn through the 29 cm hygroscopic growth tube at a flow rate of 30 L/min. The tube was held at 37° C. and 99% relative humidity (RH) to simulate expected lung conditions. The growth tube was approximately 29 cm, which is consistent with the distance from the mouth inlet to the main bronchi of an adult. Following passage through the tubular geometry the aerosols were delivered to the 10-stage MOUDI or Andersen Cascade Impactor (ACI; Graseby-Andersen Inc, Smyrna, Ga.) for particle sizing. Both the tubular geometry and the cascade impactor were placed in an environmental chamber (Espec Environmental Cabinet, Hudsonville, Mich.) to maintain constant temperature and humidity conditions. The ACI was employed following hygroscopic growth when it was expected that the aerosols produced would be in the 1-3 μm size range. For these studies, the final aerodynamic particle size distribution of the aerosol exiting the hygroscopic growth tube was determined at 28±2 L/min, and humidified co-flow air (99% RH) was supplied to the impactor. […] The mass of drug on each impaction plate was determined and used to calculate both the initial and final aerodynamic particle size distributions of the drug aerosols. The growth ratios were calculated by comparing the final size with the initial size of the nanoparticle as a measure of hygroscopic size increase.
Hygroscopic growth of these nanoparticle aerosols was evaluated by passing the aerosol through a growth tube as described in Example 1. […]

[5] = In vitro growth system for validation of the numerical model (CAG, growth zone, MOUDI); type: physicochemical
Experimental: Submicrometer drug and drug-hygroscopic excipient particles were formed using a capillary aerosol generator (CAG). The capillary aerosol generation system is described and considered in detail by the previous studies of Hindle et al. (1998) and Longest et al. (2007). In the current study, the formulation was a mixture of 50% water and 50% ethanol by weight to dissolve both hydrophilic and hydrophobic drugs. This solution was heated and pumped through the CAG at a flow rate of 10 mg/s to form the spray aerosol. Single drug and drug-hygroscopic excipient particles were created experimentally for albuterol sulfate (AS), budesonide (BD), and sodium chloride (NaCl). Specifically, single component drug particles were formed using a 0.2% w/v AS solution and a 0.15% w/v BD solution, respectively. Combination drug-hygroscopic excipient particles were generated using a 0.1% AS-0.1% NaCl w/v solution and a 0.1% BD-0.1% NaCl w/v solution, respectively. The spray aerosol was allowed to dry into solid particles by passage through a 52 cm length of dry tubing (FIG. 3). Initial particle size was then assessed by connecting the tubing to a 10 stage MOUDI (MSP Corp, Shoreview, Minn.). To produce growth, the aerosol stream was combined with humidified air at T=25° C. and RH=99% sampled from an environmental cabinet. […] This length was selected to provide a residence time of approximately 0.2 s, which is consistent with the time required for an orally inhaled pharmaceutical aerosol to reach the main bifurcation of the lungs under standard inhalation conditions. Walls of the growth section were pre-wetted to simulate the wet walled conditions of the respiratory tract, which stimulates aerosol growth. The growth tube was not heated and was exposed to 24° C. room temperature air for this initial validation experiment. After exiting the growth tube, the aerosol was passed into the 10 stage MOUDI for size characterization.
In separate experiments, the temperature and humidity of the humidified air and the temperature of the aerosol mixture stream at the inlet to the condensational growth tube were measured. […]
The initial aerodynamic particle size distribution of the aerosol exiting the drying section of tubing was determined using the 10 stage MOUDI operated at 30±2 L/min, which allowed size fractionation between 50 nm and 10 μm. […] The final aerodynamic particle size distribution of the aerosol exiting the condensational growth tube was also determined using the MOUDI operated at 30±2 L/min. […] The mass of drug and excipient on each impaction plate was determined and used to calculate both the initial and final aerodynamic particle size distributions of the drug and combination aerosols. […]

Compound	Hygroscopic parameter isρs/Ms [1]	Saturated mass fraction (mfsat) [1]	Saturated mole fraction (χsat) [1]	Predicted van't Hoff factor (i) [2]	Predicted van't Hoff factor (i) [1]	Predicted van't Hoff factor (i) ([2]; listed as NaCl)	i coefficient, Raoult's law form of the equation ([2]; NaCl data of Cinkotai (1971), through mfs = 0.3)	initial mean MMAD (standard deviation) [3]	Initial MMAD ([4]; CAG-generated albuterol nanoparticles before growth tube, n = 3-4)	Final MMAD (99% RH) ([4]; after 29 cm growth tube, 37° C., 99% RH)	Growth ratio ([4]; final size compared with initial size, 29 cm growth tube, 99% RH)	Initial MMAD ([5]; at inlet to growth zone, SD in parentheses, minimum 4 trials)	Initial dgeo ([5]; calculated from MMAD and dry particle density)	Final dgeo ([5]; outlet of 26 cm growth tube, about 0.2 s, 99% RH, assumed equal to the MMAD)	d/do ([5]; ratio of final to initial geometric diameters)
OC[C@@H](O)[C@@H](O)[C@H](O)[C@H](O)CO [Mannitol (MN), Mannitol]	8.2 kmol/m^3	0.15	0.018	1.0^e	–	–	–	–	–	–	–	–	–	–	–
CC(O)CO (centres unmarked) [Propylene glycol (PG), Propylene glycol]	13.6 kmol/m^3	1.00	1.00	–	1.0^d	–	–	–	–	–	–	–	–	–	–
[Cl-].[Na+] [Sodium chloride (NaCl), Sodium chloride]	77.9 kmol/m^3	0.265	–	2.1^f	–	2.1	1.9	–	–	–	–	–	–	–	–
O=C(O)CC(O)(CC(=O)O)C(=O)O [Citric acid (CA), Citric acid]	16.5 kmol/m^3	0.57	0.11	–	1.9^d	–	–	–	–	–	–	–	–	–	–
Albuterol sulfate [Albuterol sulfate (100%)]	4.9 kmol/m^3	0.28	0.012	–	2.1	–	–	900 (32.7) nm	380 nm	510 nm	1.35	0.38 (0.01)^a μm	0.33 μm	0.51 (0.04) μm	1.55 (0.12)
